Laboratory results taken from patent publication US20090012766A1, “Event Sequencer” (NATIONAL INSTITUTE OF ADVANCED INDUSTRIAL SCIENCE AND …, priority 2004, published 2009).

Experiments:
[1] = test system: cells resistant or sensitive to the anticancer agent; assay: Time-lapse profiles of cells exposed to an anticancer agent; assay type: cell-based; details: 1 μM, 5 μM, 10 μM and the like
Description: In this example, cisplatin was used as an exemplary anticancer agent and mixed into medium contacting cells. The concentration of the anticancer agent was selected as appropriate, such as 1 μM, 5 μM, 10 μM, and the like, to observe the reaction of the cells. Cisplatin was applied to cells resistant or sensitive to the anticancer agent. Time-lapse observation was conducted to produce profiles as in the above-described examples.

HEK293 cells = assay: Solid phase transfection with actin-like acting substances, gelatin as control (FIG. 1); assay type: cell-based, human
Description: (§1) The final concentration of DNA was adjusted to 1 μg/μL. An actin-like acting substance was stored as a stock having a concentration of 10 μg/μL, in ddH2O. All dilutions were made using PBS, ddH2O, or Dulbecco's MEM. A series of dilutions, for example, 0.2 μg/μL, 0.27 μg/μL, 0.4 μg/μL, 0.53 μg/μL, 0.6 μg/μL, 0.8 μg/μL, 1.0 μg/μL, 1.07 μg/μL, 1.33 μg/μL, and the like, were formulated.
In Example 2, the following 5 cells were used to confirm an effect: human mesenchymal stem cell (hMSCs, PT-2501, Cambrex BioScience Walkersville, Inc., MD); human embryonic renal cell (HEK293, RCB1637, RIKEN Cell Bank, JPN); NIH3T3-3 cell (RCB0150, RIKEN Cell Bank, JPN); HeLa cell (RCB0007, RIKEN Cell Bank, JPN); and HepG2(RCB1648, RIKEN Cell Bank, JPN). These cells were cultured in DMEM/10% IFS containing L-glutamine and penicillin/streptomycin.
(§2) Transfection reagents and DNA were mixed to form a DNA-transfection reagent complex. Formation of the complex requires a certain period of time. Therefore, the mixture was spotted onto a solid phase support (e.g., a poly-L-lysine slide) using an arrayer. In Example 2, as a solid phase support, an APS slide, a MAS slide, and an uncoated slide were used, as well as a poly-L-lysine slide. These slides are available from Matsunami Glass (Kishiwada, Japan), or the like.
Although the actin-like acting substance might be used during complex formation, it was also used immediately before spotting in the present Example.
300 μL of DNA concentrated buffer (EC buffer)+16 μL of an enhancer were mixed in an Eppendorf tube. The mixture was mixed with a Vortex, followed by incubation for 5 minutes. […]
Gene introduction was evaluated by detection using, for example, immunofluorescence, fluorescence microscope examination, laser scanning, radioactive labels, and sensitive films, or emulsion.
(§3) To quantify transfection efficiency, the present inventors use a DNA microarray scanner (GeneTAC UC4×4, Genomic Solutions Inc., MI). Total fluorescence intensity (arbitrary unit) was measured, and thereafter, fluorescence intensity per unit surface area was calculated.

Mesenchymal Stem Cells = assay: Solid phase transfection at varied fibronectin concentration on PLL, APS and uncoated slides (FIG. 7); assay type: cell-based, human
Description: as §1, §2
The growing cells were adjusted to a concentration of 10^7 cells/25 mL. The cells were plated on the slide in a 100×100×15 mm squared Petri dish or a 100 mm (radius)×15 mm circular dish. Transfection was conducted for about 40 hours. This period of time corresponded to about 2 cell cycles. The slide was treated for immunofluorescence.
as §3
In FIG. 7, slides coated with PLL (poly-L-lysine), APS and uncoated slides are shown.

Human Mesenchymal Cell = assay: Cell adhesion profile, actin filaments and nuclear surface area with or without fibronectin (FIGS. 8-10); assay type: cell-based; details: presence of fibronectin

N.N.[Cl][Pt][Cl] [cisplatin]
time-lapse profiles [1]: varied depending on the difference in cisplatin concentration and resistance/sensitivity

fibronectin
transfection in the system using the actin-like acting substance (HEK293 cells): transfection took place to a significant level | fibronectin concentration at which the effect was further increased (Mesenchymal Stem Cells; APS slides): > 1.07 µg/µL | fibronectin concentration at which transfection efficiency reached a plateau (Mesenchymal Stem Cells; PLL coating and absence of coating): more than 0.53 μg/μL | transfection efficiency as a function of fibronectin concentration (Mesenchymal Stem Cells; fibronectin 0 to 1.33 μg/μL, PLL, APS, uncoated slides): increased with an increase in fibronectin concentration | surface area of the nucleus (Human Mesenchymal Cell): significantly increased | extension of adherent cells (Human Mesenchymal Cell; initial 3 hours of culture): full extension of cells

gelatin [reference compound]
transfection in the system using the actin-like acting substance (HEK293 cells): transfection was not very successful

laminin
transfection in the system using the actin-like acting substance (HEK293 cells): transfection took place to a significant level
